In the test the test system is PMA-differentiated THP-1 cells. The test is described as follows: IL-1β production in PMA-differentiated THP-1 cells stimulated with gramicidin (hTHP-1 assay containing 2% fetal bovine serum; Procedures 1 and 2). The test is classed as cell-based, human. The following applies: 2% fetal bovine serum. The procedure, abridged: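 PMA-primed (20 ng/ml, 16-18 h) THP-1 cells in RPMI with 2% FBS, 50,000 cells/well, were preincubated 1 h with compound (0.0017-100 μM final, 0.37% DMSO), then stimulated 2 h with 5 μM gramicidin. Supernatant IL-1β measured by HTRF.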

[1] abbreviates: Homo sapiens, THP-1, Table B2, class symbols, read-out: hTHP-1 IC50.
[2] abbreviates: Homo sapiens, THP-1, Table B1, class symbols, read-out: Average IC50 of compounds in hTHP-1 assay: hTHP-1 IC50.
Where [3] appears, read: Homo sapiens, THP-1, Table B2, numeric bounds, read-out: hTHP-1 IC50.
Where [4] appears, read: Table B2, class symbols, read-out: hTHP-1 IC50.
Where [5] appears, read: Table B1, class symbols, read-out: Average IC50 of compounds in hTHP-1 assay: hTHP-1 IC50.
Where [6] appears, read: Homo sapiens, THP-1, Table B3, hTHP-1 assay, class symbols, read-out: IC50.

Each structure is given as a SMILES string. Where two headings read alike, the source gives them in different places.

IC50 data for 20 compounds are collected here from US20230031406A1, “COMPOUNDS AND COMPOSITIONS FOR TREATING CONDITIONS ASSOCIATED WITH NLRP ACTIVITY” (Novartis AG, priority 2018, published 2023).

With `CC1(C)CCc2c1nc1c(c2NC(=O)N=S(N)(=O)c2cnn3c2OCCC3)CCC1` (single isomer, unassigned) [Compound 304b, (R) or (S)-N′-((3,3-dimethyl-1,2,3,5,6,7-hexahydrodicyclopenta [b,e]pyridin-8-yl)carbamoyl)-6,7-dihydro-5H-pyrazolo[5,1-b][1,3]oxazine-3-sulfonimidamide], the IC50 under setting [1] was in the range of 1 to 5 µM. Regarding `CC(C)(O)c1ncc(S(N)(=O)=NC(=O)Nc2c3c([n+]([O-])c4c2CCC4)CCC3)s1` (centres unmarked) [Compound 146, 8-(3-(amino(2-(2-hydroxypropan-2-yl)thiazol-5-yl)(oxo)-λ6-sulfaneylidene)ureido)-1,2,3,5,6,7-hexahydrodicyclopenta[b,e]pyridine 4-oxide], the IC50 under setting [2] was 5 to 30 µM. Regarding `CC1CCc2c1nc1c(c2NC(=O)N=S(N)(=O)c2cn(C(C)C)cn2)CCC1` (single isomer, unassigned) [Compound 660c, (S, R) or (R, S) or (S, S) or (R, R)-1-Isopropyl-N′-((3-methyl-1,2,3,5,6,7-hexahydrodicyclopenta [b,e]pyridin-8-yl)carbamoyl)-1H-imidazole-4-sulfonimidamide], under setting [3], the IC50 is above 30 µM. Consider `CC(C)c1csc(S(N)(=O)=NC(=O)Nc2c3c(nc4c2CCC4)CCC3)c1` (single isomer, unassigned) [Compound 173b, (S) or (R)-N′-((1,2,3,5,6,7-hexahydrodicyclo-penta[b,e]pyridin-8-yl)carbamoyl)-4-isopropylthiophene-2-sulfonimidamide], for which the IC50 (Homo sapiens, THP-1, Table B1, numeric bounds, read-out: Average IC50 of compounds in hTHP-1 assay: hTHP-1 IC50) was above 20 µM. As for `CCn1ccc([S@](N)(=O)=NC(=O)Nc2c3c(nc4c2CCC42CC2)CCC3)n1` [Compound 604b], the IC50 under setting [1] lay in the range of 0.2 to 1 µM. Regarding `NS(=O)(=NC(=O)Nc1c2c(nc3c1CCC31CC1)CCC2)c1ccn(C(F)F)n1` (centres unmarked) [Compound 180, 1-(difluoromethyl)-N′-((1′,5′,6′,7′-tetrahydro-2′H-spiro[cyclopropane-1,3′-dicyclopenta[b,e]pyridin]-8′-yl)carbamoyl)-1H-pyrazole-3-sulfonimidamide], the IC50 under setting [2] was in the range of 1 to 5 µM. Consider `Cc1nc2c(c(NC(=O)N=[S@@](N)(=O)c3cnc(C(C)(C)O)s3)c1C1CC1)CCC2` [Compound 738], for which, under setting [3], the 50% inhibitory concentration (IC50) is above 30 µM. With `Cc1c(CC2CC2)nc2c(c1NC(=O)N=S(N)(=O)c1cc(C(C)(C)O)cs1)CCC2` (centres unmarked) [Compound 655, N′-((2-(cyclopropylmethyl)-3-methyl-6,7-dihydro-5H-cyclopenta[b]pyridin-4-yl)carbamoyl)-4-(2-hydroxypropan-2-yl)thiophene-2-sulfonimidamide], the 50% inhibitory concentration (IC50) under setting [1] lay within 5 to 30 µM. For `CC1(C)CCc2c1nc1c(c2NC(=O)N=S(N)(=O)c2cnc(C(C)(O)CO)s2)CCC1` (centres unmarked) [Compound 201, 2-(1,2-Dihydroxypropan-2-yl)-N′-((3,3-dimethyl-1,2,3,5,6,7-hexahydrodicyclopenta [b,e]pyridin-8-yl)carbamoyl)thiazole-5-sulfonimidamide], the IC50 under setting [4] was in the range of 0.2 to 1 µM. As for `Cc1cn(C(C)C)nc1S(N)(=O)=NC(=O)Nc1c2c(nc3c1CCC3)CCC2` (single isomer, unassigned) [Compound 687a, (S) or (R)-N′-((1,2,3,5,6,7-hexahydrodicyclopenta [b,e]pyridin-8-yl)carbamoyl)-1-isopropyl-4-methyl-1H-pyrazole-3-sulfonimidamide], the IC50 under setting [3] is above 30 µM. For `CCC1CCc2c1nc1c(c2NC(=O)N=S(N)(=O)c2cnc(C(C)(C)O)s2)CCC1` (centres unmarked) [Compound 662, N′-((3-ethyl-1,2,3,5,6,7-hexahydrodicyclopenta[b,e]pyridin-8-yl)carbamoyl)-2-(2-hydroxypropan-2-yl)thiazole-5-sulfonimidamide], the IC50 under setting [4] fell in the range of 5 to 30 µM. As to `CC1CCc2c1nc1c(c2NC(=O)N=S(N)(=O)c2cnn(C(C)C)c2)CCC1` (single isomer, unassigned) [Compound 171a, (S, R) and (S, S) or (R, S) and (R, R)-1-Isopropyl-N′-((3-methyl-1,2,3,5,6,7-hexahydrodicyclopenta [b,e]pyridin-8-yl)carbamoyl)-1H-pyrazole-4-sulfonimidamide], under setting [3], the IC50 is above 30 µM. Turning to `CC1CCc2c1nc1c(c2NC(=O)N=S(N)(=O)c2sc(C(C)(C)O)nc2CO)CCC1` (single isomer, unassigned) [Compound 168aa, (S,S) or (S,R)-4-(hydroxymethyl)-2-(2-hydroxypropan-2-yl)-N′-((3-methyl-1,2,3,5,6,7-hexahydrodicyclo-penta[b,e]pyridin-8-yl)carbamoyl)thiazole-5-sulfonimidamide], under setting [5], the IC50 was 5 to 30 µM. The same measure, in the same setting: the figure for `CC(C)c1ncc(F)c(C(C)C)c1NC(=O)N=S(N)(=O)c1nc(C(C)(C)O)cs1` (single isomer, unassigned) [Compound 163a, (R) or (S)-N′-((5-fluoro-2,4-diisopropylpyridin-3-yl)carbamoyl)-4-(2-hydroxypropan-2-yl)thiazole-2-sulfonimidamide] is 0.04 to 0.2 µM. For the compound `CC(C)(O)c1csc(S(N)(=O)=NC(=O)Nc2cc(C(F)(F)F)nc3c2CCC3)c1` (single isomer, unassigned) [Example 667, (R) or (S)-4-(2-hydroxypropan-2-yl)-N′-((2-(trifluoromethyl)-6,7-dihydro-5H-cyclopenta[b]pyridin-4-yl)carbamoyl)thiophene-2-sulfonimidamide], the IC50 under setting [6] fell in the range of 1 to 5 µM. Still for that read-out and setting: the figure for `CCn1nc(S(N)(=O)=NC(=O)Nc2c3c(nc4c2CCC42CC2)CCC3)cc1CO` (centres unmarked) [Example 589, 1-Ethyl-5-(hydroxymethyl)-N′-((1′,5′,6′,7′-tetrahydro-2′H-spiro[cyclopropane-1,3′-dicyclopenta[b,e]pyridin]-8′-yl)carbamoyl)-1H-pyrazole-3-sulfonimidamide] is 1 to 5 µM. Take `CC(C)(O)c1ncc(S(N)(=O)=NC(=O)Nc2c3c(nc4c2CCC42CC2)CCC3)s1` (centres unmarked) [Compound 136, 2-(2-hydroxypropan-2-yl)-N′-((1′,5′,6′,7′-tetrahydro-2′H-spiro[cyclopropane-1,3′-dicyclopenta[b,e]pyridin]-8′-yl)carbamoyl)thiazole-5-sulfonimidamide]: under setting [2], the IC50 lay in the range of 0.04 to 0.2 µM.

As to `Cc1c(-c2ccccc2)nc2c(c1NC(=O)N=S(N)(=O)c1cnc(C(C)(C)O)s1)CCC2` (single isomer, unassigned) [Compound 143b, (R) or (S)-2-(2-hydroxy-propan-2-yl)-N′-((3-methyl-2-phenyl-6,7-dihydro-5H-cyclopenta[b]pyridin-4-yl)carbamoyl)thiazole-5-sulfonimidamide], the IC50 (Table B1, numeric bounds, read-out: Average IC50 of compounds in hTHP-1 assay: hTHP-1 IC50) is above 30 µM. Take `NS(=O)(=NC(=O)Nc1c2c(nc(C(F)(F)F)c1-c1ccccc1)CCC2)c1nn(C(F)F)cc1F` (single isomer, unassigned) [Example 766, (S) or (R)-1-(difluoromethyl)-4-fluoro-N′-((3-phenyl-2-(trifluoromethyl)-6,7-dihydro-5H-cyclopenta[b]pyridin-4-yl)carbamoyl)-1H-pyrazole-3-sulfonimidamide]: the IC50 (Table B4, class symbols, read-out: hTHP-1 IC50) is 1 to 5 µM. Take `CCC1CCc2c1nc1c(c2NC(=O)N=S(N)(=O)c2sc(C(C)(C)O)cc2F)CCC1` (single isomer, unassigned) [Compound 671d, (R, R) or (R, S) or (S, R) or (S, S)-N′-((3-ethyl-1,2,3,5,6,7-hexahydrodicyclopenta [b,e]pyridin-8-yl)carbamoyl)-3-fluoro-5-(2-hydroxypropan-2-yl) thiophene-2-sulfonimidamide]: under setting [4], the IC50 lay within 0.2 to 1 µM.
